# According to US20080249088A1, “Topical Delivery of Antifungal Drugs” (priority 2007, published 2008):
# Assay: solubility in water
# Format: physicochemical
# Method: In the preferred embodiment, a 100 ml. mixture would be created by mixing 1 gram of butenafine with 5 ml. of benzyl alcohol at room temperature. This would then be dissolved into 85 ml. of ethanol, then 10 ml. of water would be added.
compound,measurement,value
"CN(Cc1ccc(C(C)(C)C)cc1)Cc1cccc2ccccc12 [Butenafine, butenafine]",solubility in water,limited solubility
